Biological target: T1, Y397-FAK phosphorylation (Homo sapiens, UniProt Q05397)
T1 construct: endogenous in cells; host or cells: MDA-231-LNA cells
Type: cell-based
Conditions: not given

T1 sequence (Q05397 whole entry): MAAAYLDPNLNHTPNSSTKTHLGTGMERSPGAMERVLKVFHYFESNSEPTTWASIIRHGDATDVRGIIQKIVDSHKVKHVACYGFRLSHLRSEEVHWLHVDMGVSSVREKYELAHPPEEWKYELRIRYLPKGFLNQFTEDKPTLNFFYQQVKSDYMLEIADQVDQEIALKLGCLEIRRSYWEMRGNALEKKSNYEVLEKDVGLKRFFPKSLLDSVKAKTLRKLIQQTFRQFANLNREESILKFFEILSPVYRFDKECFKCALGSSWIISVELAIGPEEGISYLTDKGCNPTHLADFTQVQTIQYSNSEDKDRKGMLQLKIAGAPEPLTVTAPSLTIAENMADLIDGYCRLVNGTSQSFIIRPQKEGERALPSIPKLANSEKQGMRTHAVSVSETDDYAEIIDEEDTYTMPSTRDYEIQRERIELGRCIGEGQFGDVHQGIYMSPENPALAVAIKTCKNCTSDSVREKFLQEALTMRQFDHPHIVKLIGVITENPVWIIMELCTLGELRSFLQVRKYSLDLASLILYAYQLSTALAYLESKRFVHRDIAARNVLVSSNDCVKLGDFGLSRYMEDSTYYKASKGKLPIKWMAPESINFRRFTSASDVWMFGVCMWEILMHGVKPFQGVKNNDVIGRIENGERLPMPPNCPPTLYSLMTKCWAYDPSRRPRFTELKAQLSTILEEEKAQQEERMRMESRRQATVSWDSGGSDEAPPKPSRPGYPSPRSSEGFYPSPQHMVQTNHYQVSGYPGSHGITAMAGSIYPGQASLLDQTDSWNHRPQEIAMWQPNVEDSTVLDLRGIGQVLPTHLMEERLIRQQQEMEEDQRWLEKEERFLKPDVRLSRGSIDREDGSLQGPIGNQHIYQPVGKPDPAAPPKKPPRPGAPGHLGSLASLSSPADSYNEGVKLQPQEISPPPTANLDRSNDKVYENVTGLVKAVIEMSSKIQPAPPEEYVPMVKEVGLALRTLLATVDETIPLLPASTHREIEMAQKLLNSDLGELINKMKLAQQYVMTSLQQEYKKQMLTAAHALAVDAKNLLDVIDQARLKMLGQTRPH

SMILES | % response of control at 2 μM
COc1cc(C2CCN(C)CC2)ccc1Nc1ncc(C(F)(F)F)c(CCc2ccccc2CC(N)=O)n1 [Compound 3, 2-(2-(2-(2-((2-Methoxy-4-(1-methylpiperidin-4-yl)phenyl)amino)-5-(trifluoromethyl)pyrimidin-4-yl)ethyl)phenyl)acetamide] | 102%
NC(=O)Cc1ccccc1CCc1nc(Nc2ccc(C3CCNCC3)cc2OC(F)(F)F)ncc1C(F)(F)F [Compound 10, 2-(2-(2-(2-((4-(Piperidin-4-yl)-2-(trifluoromethoxy)phenyl)amino)-5-(trifluoromethyl)pyrimidin-4yl)ethyl)phenyl)acetamide] | 116%

Other lines, results leading:

% response of control at 2 μM | SMILES
91% | COc1cc(C2CCNCC2)ccc1Nc1ncc(C(F)(F)F)c(CCc2ccccc2CC(N)=O)n1 [Compound 2, 2-(2-(2-(2-((2-Methoxy-4-(piperidin-4-yl)phenyl)amino)-5-(trifluoromethyl)pyrimidin-4-yl)ethyl)phenyl)acetamide]
108% | CCN1CCC(c2ccc(Nc3ncc(C(F)(F)F)c(CCc4ccccc4CC(N)=O)n3)c(OC)c2)CC1 [Compound 4, 2-(2-(2-(2-((4-(1-Ethylpiperidin-4-yl)-2-methoxyphenyl)amino)-5-(trifluoromethyl)pyrimidin-4-yl)ethyl)phenyl)acetamide]
80% | COc1cc(C2CCN(C)CC2)ccc1Nc1ncc(C(F)(F)F)c(CCc2cccc(C(N)=O)c2)n1 [Compound 6, 3-(2-(2-((2-Methoxy-4-(1-methylpiperidin-4-yl)phenyl)amino)-5-(trifluoromethyl)pyrimidin-4-yl)ethyl)benzamide]
117% | CN1CCC(c2ccc(Nc3ncc(C(F)(F)F)c(CCc4ccccc4CC(N)=O)n3)c(OC(F)(F)F)c2)CC1 [Compound 11, 2-(2-(2-(2-((4-(1-Methylpiperidin-4-yl)-2-(trifluoromethoxy)phenyl)amino)-5-(trifluoromethyl)pyrimidin-4-yl)ethyl)phenyl)acetamide]
90% | CN1CCC(c2ccc(Nc3ncc(C(F)(F)F)c(CCc4ccccc4CC(N)=O)n3)c(F)c2)CC1 [Compound 13, 2-(2-(2-(2-((2-Fluoro-4-(1-methylpiperidin-4-yl)phenyl)amino)-5-(trifluoromethyl)pyrimidin-4-yl)ethyl)phenyl)acetamide]

Same assay, conditions: MDA-231-LNA cells; relative to control compound at 2 μM

% response of control at 2 μM | SMILES
122% | COc1cc(N2CCNCC2)ccc1Nc1ncc(C(F)(F)F)c(CCc2ccccc2CC(N)=O)n1 [Compound 1, 2-(2-(2-(2-((2-Methoxy-4-(piperazin-1-yl)phenyl)amino)-5-(trifluoromethyl)pyrimidin-4-yl)ethyl)phenyl)acetamide]

Tested on: HeyA8, SKOV3ip1, and HeyA8-MDR models
Conditions: concomitant administration of TAE226 and docetaxel, all three models; cited from earlier work

SMILES | reduction of tumour burden
CNC(=O)c1ccccc1Nc1nc(Nc2ccc(N3CCOCC3)cc2OC)ncc1Cl [TAE226] | 85-97%

Source: US9174946B2, “Selective FAK inhibitors” (priority 2011, dated 2015)
